In one assay the target is JAK1 (Homo sapiens (Human), UniProt P23458). The experiment in a line: Jak Biochemical HTRF Assay, JAK1. The conditions noted are these: HTRF biochemical assay, GST-tagged catalytic domain; top concentration tested […]; read-out: JAK1 IC50. The text has this:
(§1) Jak Biochemical HTRF Assay Protocol
(§2) Subsequent reagent additions employed an Agilent Bravo.

The target in a further assay is JAK2 (Homo sapiens (Human), UniProt O60674). Kind of assay: Jak Biochemical HTRF Assay, JAK2. Particulars: HTRF biochemical assay, GST-tagged catalytic domain; top concentration tested […].
Chain of JAK2 (O60674 849-1124): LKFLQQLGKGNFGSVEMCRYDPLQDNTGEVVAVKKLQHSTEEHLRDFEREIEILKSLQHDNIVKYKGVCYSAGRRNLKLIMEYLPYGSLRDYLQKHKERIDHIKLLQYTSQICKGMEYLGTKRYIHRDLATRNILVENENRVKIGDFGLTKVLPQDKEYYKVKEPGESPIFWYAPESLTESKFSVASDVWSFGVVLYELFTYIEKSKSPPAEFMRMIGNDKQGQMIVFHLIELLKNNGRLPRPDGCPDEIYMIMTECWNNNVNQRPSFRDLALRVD
Text: as §1, §2

SMILES strings stand for the structures.

Chain of JAK1 (P23458 875-1153): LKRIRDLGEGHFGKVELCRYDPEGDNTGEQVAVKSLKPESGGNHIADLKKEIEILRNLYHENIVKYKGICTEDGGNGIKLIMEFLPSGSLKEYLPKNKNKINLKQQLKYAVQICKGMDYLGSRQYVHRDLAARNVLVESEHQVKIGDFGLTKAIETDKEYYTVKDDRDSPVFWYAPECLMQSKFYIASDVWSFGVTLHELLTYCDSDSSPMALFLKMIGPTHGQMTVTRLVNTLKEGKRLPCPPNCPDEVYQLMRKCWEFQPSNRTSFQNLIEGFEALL

As for `CS(=O)(=O)c1ccc(Nc2nn(C3(CC#N)CCCCC3)cc2C(N)=O)cc1` [Example 2-14, 1-[1-(cyanomethyl)cyclohexyl]-3-{[4-(methylsulfonyl)phenyl]amino}-1H-pyrazole-4-carboxamide], the 50% inhibitory concentration (IC50) on JAK1 was 20 nM; on JAK2, 193 nM.

Turning to `N#CCC1(n2cc(C(N)=O)c(Nc3ccccc3)n2)CCCCC1` [Example 2-15, 1-[1-(cyanomethyl)cyclohexyl]-3-(phenylamino)-1H-pyrazole-4-carboxamide], the IC50 on JAK1 stood at 10 nM; against JAK2, 92 nM.

Take `CC(C)(C)OC(=O)N1CCC(CC#N)(n2cc(C(N)=O)c(Nc3ccc(S(C)(=O)=O)cc3)n2)C1` (stereo not drawn) [Example 2-16, tert-butyl 3-(4-carbamoyl-3-{[4-(methylsulfonyl)phenyl]amino}-1H-pyrazol-1-yl)-3-(cyanomethyl)pyrrolidine-1-carboxylate]: the IC50 came out at 0.2 nM on JAK1 and 2 nM against JAK2.

On to `CC(C)(C)OC(=O)N1CCC(CC#N)(n2cc(C(N)=O)c(Nc3ccccc3)n2)C1` (stereo not drawn) [Example 2-17, tert-butyl 3-[4-carbamoyl-3-(phenylamino)-1H-pyrazol-1-yl]-3-(cyanomethyl)pyrrolidine-1-carboxylate], for which the IC50 at JAK1 came out at 2 nM; at JAK2 it was 27 nM.

As for `N#CCC1(n2cc(C(N)=O)c(Nc3ccccc3)n2)COC1` [Example 2-20, 1-[3-(cyanomethyl)oxetan-3-yl]-3-(phenylamino)-1H-pyrazole-4-carboxamide], the results for the IC50 at JAK1 and on JAK2 were 33 nM and 241 nM, respectively.

Take `N#CC[C@]1(n2cc(C(N)=O)c(Nc3ccccc3)n2)C[C@@H](C#N)C1` [Example 2-21, 1-((1s,3s)-3-cyano-1-(cyanomethyl)cyclobutyl)-3-(phenylamino)-1H-pyrazole-4-carboxamide]: the figures for the 50% inhibitory concentration (IC50) at JAK1 and at JAK2 were 31 nM and 405 nM, respectively.

Consider `CS(=O)(=O)c1ccc(Nc2nn([C@]3(CC#N)C[C@@H](C#N)C3)cc2C(N)=O)cc1` [Example 2-22, 1-((1r,3r)-3-cyano-1-(cyanomethyl)cyclobutyl)-3-((4-(methylsulfonyl)phenyl)amino)-1H-pyrazole-4-carboxamide], for which the IC50 came to 13 nM at JAK1 and 127 nM at JAK2.

`CC(C)(C)OC(=O)N1CC2(C1)CC(CC#N)(n1cc(C(N)=O)c(Nc3ccccc3)n1)C2` [Example 2-23, tert-butyl 6-[4-carbamoyl-3-(phenylamino)-1H-pyrazol-1-yl]-6-(cyanomethyl)-2-azaspiro[3.3]heptane-2-carboxylate]: the figures for the IC50 on JAK1 and on JAK2 were 198 nM and 1480 nM, respectively.

Regarding `COc1ccc(N2CCC(CC#N)(n3cc(C(N)=O)c(Nc4ccc(F)cc4)n3)CC2)cc1OC` [Example 3-1, 1-[4-(Cyanomethyl)-1-(3,4-dimethoxyphenyl)piperidin-4-yl]-3-[(4-fluorophenyl)amino]-1H-pyrazole-4-carboxamide], the IC50 is 4 nM on JAK1 and 154 nM against JAK2.

In the case of `N#CCC1(n2cc(C(N)=O)c(Nc3ccc(F)cc3)n2)CCN(c2ccnc3ccccc23)CC1` [Example 3-3, 1-[4-(cyanomethyl)-1-quinolin-4-ylpiperidin-4-yl]-3-[(4-fluorophenyl)amino]-1H-pyrazole-4-carboxamide], the results for the half-inhibitory concentration (IC50) on JAK1 and on JAK2 were 5 nM and 488 nM, respectively.

Take `Cc1cc(N2CCC(CC#N)(n3cc(C(N)=O)c(Nc4ccc(F)cc4)n3)CC2)ccn1` [Example 3-4, 1-[4-(cyanomethyl)-1-(2-methylpyridin-4-yl)piperidin-4-yl]-3-[(4-fluorophenyl)amino]-1H-pyrazole-4-carboxamide]: the IC50 on JAK1 worked out at 8 nM; on JAK2 it was 174 nM.

As to `N#CCC1(n2cc(C(N)=O)c(Nc3ccc(F)cc3)n2)CCN(c2cncc(F)c2)CC1` [Example 3-5, 1-[4-(cyanomethyl)-1-(5-fluoropyridin-3-yl)piperidin-4-yl]-3-[(4-fluorophenyl)amino]-1H-pyrazole-4-carboxamide], the IC50 at JAK1 is 0.2 nM; against JAK2 it was 4 nM.

(Values after patent publication US9328099B2, “Cyanomethylpyrazole carboxamides as janus kinase inhibitors” (Merck Sharp & Dohme Corp., priority 2011, dated 2016).)
